Tests used:
[1] = for temperature at which it begins to evolve nitrogen: onset; for gas/nitrogen evolution or decomposition: room temperature or on melting
[2] = Curing of unsaturated polyester-styrene resin
Method: An unsaturated polyester resin was made by reacting maleic anhydride (1.0 mole), phthalic anhydride (1.0 mole), and propylene glycol (2.2 moles) until an acid number of 45-50 was obtained. To this was added hydroquinone at a 0.013% concentration. Seven parts of this unsaturated polyester was diluted with 3 parts of monomeric styrene to obtain a homogeneous blend having a viscosity of 13.08 poise and a specific gravity of 1.14.
To 20 grams of this blend was added 0.128 gram of alpha-(tert.-butylazo)isobutyronitrile and the resultant composition placed in a constant temperature bath at 212° F. (100° C.). […] At 180° F. (82.2° C.), a peak exotherm of 381° F. (193.9° C.) was obtained in 13.3 minutes. The resultant cured materials were very hard.
The procedure of Example III was used at 212° F. (100° C.) and 240° F. (115.6° C.) where peak exotherms of 414° F. (212.2° C.) and 440° F. (226.7° C.) were obtained after 10.0 and 5.3 minutes respectively using 0.2 gram of the 1-tert.-butylazo-1-cyanocyclohexane. The resultant cured resins were very hard.
The curing procedure and resin are described in Example III.

[3] = Oxidation of iodide ion to free iodine
[4] = Thermal decomposition half-life; assay type: physicochemical; details: gas evolution technique, trichlorobenzene solvent
Method: It produces 179 cc. of gas per gram at 110° C. The following half-life data have been determined:
The following half-life data have been determined by gas evolution technique using trichlorobenzene as the solvent: […]

[5] = Polymerization of styrene in sealed tube at 70° C; details: for dry polymer weight: 10.0 grams styrene
Method: An 18 × 150 mm pyrex test tube was filled with 10.0 grams of distilled styrene monomer and 0.121 grams (8.4 × 10^^-4 moles) of 2-t-butylazo-2-hydroxypropane. The test tube was flushed out with nitrogen and placed in a constant temperature bath thermostatted at 70° C. After 4.0 hours at 70° C, the tube was removed and quickly chilled to -20° F to prevent post polymerization. The sealed tube was then broken and the polymer dissolved in 1000 ml of methanol to precipitate the polystyrene. The polymer was separated by filtration and dried in an oven at 50°-55° C. The dry polymer weighed 3.4 grams (34% conversion). The rate of conversion of monomer to polymer was 8.5% per hour.
An 18 × 150 mm pyrex test tube was filled with 10.0 grams of distilled styrene monomer and 0.134 grams (8.5 × 10^^-4 moles) of 2-t-butylazo-2-hydroxybutane from Example V. The test tube was flushed out with nitrogen and placed in a constant temperature thermostatted bath at 70° C. After 6.0 hours at 70° C, the tube was removed and quickly chilled to -20° F to prevent post polymerization. The sealed tube was then broken and the polymer dissolved in 1000 ml of methanol to precipitate the polystyrene. The polymer was separated by filtration and dried in an oven at 50°-55° C. The dry polymer weighed 4.8 grams (48% conversion). The rate of conversion of monomer to polymer was 8.0% per hour.

[6] = 180° F. (82.2° C.), 1.0 weight per cent
[7] = 240° F. (115.6° C.), 1.0 weight per cent
[8] = 265° F. (129.4° C.), 1.0 weight per cent
[9] = 212° F. (100° C.), 1.0 weight per cent
[10] = 180° F. (82.2° C.), loading not given
[11] = 212° F. (100° C.), loading not given

Compound: CC(C)(C)N=NC(=O)c1ccccc1 [Example XX, Benzoyl tert.-butyldiimide]
- temperature at which it evolves nitrogen [1]: 25 °C
- hardness of cured resin [2]: hard
- peak exotherm [2, 6]: 233 ° F.
- time to peak exotherm [2, 6]: 10.0 min

Compound: CC(C)(C)N=Nc1nc(N=NC(C)(C)C)nc(N=NC(C)(C)C)n1 [XXI, 2,4,6-Tri-(tert.-butylazo)-1,3,5-triazine]
- temperature at which it begins to evolve nitrogen [1]: 102 °C
- oxidizing of iodide ion [3]: oxidized iodide ion to free iodine

Compound: CCCNC(C)(CC(C)C)N=NC(C)(C)C (stereo not shown) [Example LX, 2-t-Butylazo-2-(propylamino)-4-methylpentane]
- gas/nitrogen evolution or decomposition [1]: slowly evolves gas at room temperature

Compound: CC(C)CC(C)(N=NC(C)(C)C)N=[N+]=[N-] (stereo not shown) [XLII, 2-t-butylazo-2-azido-4-methylpentane]
- Barcol Hardness ([2]; bath 100° C.): 40
- Minutes to Peak Exotherm ([2]; bath 100° C.): 5.3 min
- peak exotherm ([2]; bath 100° C.): 418 ° F

Compound: COC(=O)CNC(=O)N=NC(C)(C)C [XVI, tert.-butylazo-N-carbmethoxymethylformamide]
- temperature at which it begins to evolve nitrogen [1]: 140 °C
- hardness of cured resin [2]: very hard
- peak exotherm [2, 7]: 356 ° F.
- time to peak exotherm [2, 7]: 15.8 min
- peak exotherm [2, 8]: 484 ° F.
- time to peak exotherm [2, 8]: 5.1 min
- oxidizing of iodide ion [3]: oxidized iodide ion to free iodine

Compound: CC(C)CC(C)(N=NC(C)(C)C)OC(C)(C)C (stereo not shown) [LIV, 2-t-Butylazo-2-t-butoxy-4-methylpentane]
- Barcol Hardness ([2]; bath 115° C.): 20
- Minutes to Peak Exotherm ([2]; bath 115° C.): 2.8 min
- peak exotherm ([2]; bath 115° C.): 358 ° F

Compound: CN(C)C(=O)N=NC(C)(C)C [XV, tert.-butylazo-N,N-dimethylformamide]
- oxidizing of iodide ion [3]: oxidized iodide ion to free iodine

Compound: COC(C)(CC(C)C)N=NC(C)(C)C (stereo not shown) [XXXVI, 2-t-butylazo-2-methoxy-4-methylpentane]
- Barcol Hardness ([2]; bath 115° C.): 40
- Minutes to Peak Exotherm ([2]; bath 115° C.): 7.2 min
- peak exotherm ([2]; bath 115° C.): 400 ° F

Compound: CC(C)CC(C)(N=NC(C)(C)C)NNc1ccccc1 (stereo not shown) [LXVIII, 2-t-Butylazo-2-phenylhydrazo-4-methylpentane]
- gas/nitrogen evolution or decomposition [1]: decomposes rapidly at room temperature

Compound: COC(C)(N=NC(C)(C)C)c1ccccc1 (stereo not shown) [XXXIX, 1-t-butylazo-1-methoxy-1-phenylethane]
- Barcol Hardness ([2]; bath 82° C.): 40
- Minutes to Peak Exotherm ([2]; bath 82° C.): 6.6 min
- peak exotherm ([2]; bath 82° C.): 371 ° F

Compound: CC(C)OC(=O)N=NC(C)(C)c1ccccc1 [Example XVIII B, Isopropyl tert.-cumylazocarboxylate]
- temperature at which it evolves nitrogen [1]: 80 °C

Compound: CC(C)CC(C)(N=NC(C)(C)C)OC#N (stereo not shown) [LIII, 2-t-Butylazo-2-cyanato-4-methylpentane]
- Barcol Hardness ([2]; bath 115° C.): 45
- Minutes to Peak Exotherm ([2]; bath 115° C.): 3.8 min
- peak exotherm ([2]; bath 115° C.): 412 ° F

Compound: CC(C)CC(C)(N=NC(C)(C)C)OOC(C)(C)CCC(C)(C)OOC(C)(CC(C)C)N=NC(C)(C)C (stereo not shown) [LXV, 2,2,5,8,8,11,11,14,17,17-decamethyl-5,14-diisobutyl-Δ^3,15-3,4,15,16-tetraaza-6,7,12,13-tetraoxaoctadecadiene]
- temperature at which it evolves nitrogen [1]: 30 °C

Compound: CC(C)CC(C)(N=NC(C)(C)C)SC#N (stereo not shown) [LI, 2-t-Butylazo-2-thiocyanato-4-methylpentane]
- Barcol Hardness ([2]; bath 115° C.): 45
- Minutes to Peak Exotherm ([2]; bath 115° C.): 3.4 min
- peak exotherm ([2]; bath 115° C.): 438 ° F

Compound: CC(C)CC(C#N)(CC(C)C)N=NC(C)(C)C [Example VII, 4-tert.-butylazo-4-cyano-2,6-dimethylheptane]
- temperature at which it begins to evolve nitrogen [1]: 70 °C
- hardness of cured resin [2]: very hard
- peak exotherm [2, 6]: 371 ° F.
- time to peak exotherm [2, 6]: 2.8 min

Compound: CC(C)(C)N=NC(N)=O [Example XIII, tert.-butylazoformamide]
- hardness of cured resin [2]: very hard
- peak exotherm [2, 9]: 407 ° F.
- time to peak exotherm [2, 9]: 7.1 min
- peak exotherm [2, 7]: 430 ° F.
- time to peak exotherm [2, 7]: 5.9 min
- peak exotherm [2, 8]: 438 ° F.
- time to peak exotherm [2, 8]: 4.5 min
- t 1/2 ([4]; 110° C): 5.73 h
- t 1/2 ([4]; 120° C): 3.00 h
- t 1/2 ([4]; 130° C): 0.87 h
- t 1/2 ([4]; 150° C): 0.14 h

Compound: C=C(C)N=NC(C)(C)C [XXII, 2(-tert.-butylazo)propene]
- gas/nitrogen evolution or decomposition [1]: evolves nitrogen at room temperature

Compound: CCC(C)(O)N=NC(C)(C)C (stereo not shown) [2-t-butylazo-2-hydroxybutane]
- rate of conversion of monomer to polymer ([5]; 6.0 hours): 8.0 % per hour
- conversion ([5]; 6.0 hours, 8.5 × 10^^-4 moles in 10.0 grams styrene): 48%
- dry polymer weight ([5]; 6.0 hours): 4.8 grams

Compound: CC(C)(C)N=NC1(C(N)=O)CCCCC1 [XXIV, 1-tert. butylazo-1-carbamylcyclohexane]
- temperature at which it evolves nitrogen [1]: above 120 °C
- peak exotherm [2, 7]: 444 ° F.
- time to peak exotherm [2, 7]: 6.8 min

Compound: CC(C)(C)N=NC(C)(C)O [LXXII, 2-t-Butylazo-2-hydroxypropane]
- rate of conversion of monomer to polymer ([5]; 4.0 hours): 8.5 % per hour
- conversion ([5]; 4.0 hours, 8.4 × 10^^-4 moles in 10.0 grams styrene): 34%
- dry polymer weight ([5]; 4.0 hours): 3.4 grams

Compound: CC(C)(C)N=NC(C)(C#N)C1CC1 (stereo not drawn) [Example XII, Alpha-tert-butylazo-alpha-cyclopropylpropionitrile]
- temperature at which it begins to evolve nitrogen [1]: 75 °C
- hardness of cured resin [2]: very hard
- peak exotherm [2, 10]: 403 ° F.
- time to peak exotherm [2, 10]: 3.3 min
- peak exotherm [2, 11]: 420 ° F.
- time to peak exotherm [2, 11]: 2.1 min

Compound: CC(C)CC(C)(N=NC(C)(C)C)NNC(C)(C)C (stereo not shown) [LXIX, 2-t-Butylazo-2-t-butylhydrazo-4-methylpentane]
- gas/nitrogen evolution or decomposition [1]: evolves nitrogen at room temperature
- Barcol Hardness ([2]; bath 82° C.): 40
- Minutes to Peak Exotherm ([2]; bath 82° C.): 1.4 min
- peak exotherm ([2]; bath 82° C.): 275 ° F

Compound: CC(C)(C)N=NC(C)(C#N)C(C)(C)C (stereo not shown) [Example IX, 2-tert.-butylazo-2-cyano-3,3-dimethylbutane]
- temperature at which it begins to evolve nitrogen [1]: 95 °C
- hardness of cured resin [2]: very hard
- peak exotherm [2, 10]: 388 ° F.
- time to peak exotherm [2, 10]: 10.4 min
- peak exotherm [2, 11]: 430 ° F.
- time to peak exotherm [2, 11]: 4.9 min

Compound: CC(C)(C)N=NC(C)(C)C(N)=O [Example XXV, 2-t-butylazo-2-carbamylpropane]
- temperature at which it evolves nitrogen [1]: above 120 °C
- peak exotherm [2, 7]: 442 ° F.
- time to peak exotherm [2, 7]: 5.7 min

Compound: CC(C)(C#N)N=NC(C)(C)c1ccccc1 [Example XI, Alpha-(tert.-cumylazo)isobutyronitrile]
- temperature at which it begins to evolve nitrogen [1]: 55 °C
- hardness of cured resin [2]: very hard
- peak exotherm [2, 6]: 378 ° F.
- time to peak exotherm [2, 6]: 1.3 min

Compound: CNC(=O)N=NC(C)(C)C [XIV, tert.-butylazo-N-methylformamide]
- hardness of cured resin [2]: very hard
- peak exotherm [2, 8]: 428 ° F.
- time to peak exotherm [2, 8]: 17.1 min

Compound: CC(C)CC(C)(N=NC(C)(C)C)OOC(C)(CC(C)C)N=NC(C)(C)C (stereo not shown) [LVIII, Di[1-(t-butylazo)-1,3-dimethylbutyl] Peroxide]
- gas/nitrogen evolution or decomposition [1]: began to gas rapidly upon reaching room temperature

Compound: CC(C)(C)N=NC(=O)NCC(=O)O [XVII, tert.-butylazo-N-carboxymethylformamide]
- temperature at which it begins to evolve nitrogen [1]: 60 °C
- oxidizing of iodide ion [3]: oxidized iodide ion to free iodine

Compound: CC1CC(C)(C)CC(C#N)(N=NC(C)(C)C)C1 (stereo not shown) [Example VIII, 1-tert.-butylazo-1-cyano-3,3,5-trimethylcyclohexane]
- temperature at which it begins to evolve nitrogen [1]: 100 °C
- hardness of cured resin [2]: very hard
- peak exotherm [2, 6]: 384 ° F.
- time to peak exotherm [2, 6]: 9.4 min
